Measurements taken from patent US4419123A, “Herbicidal 4-trifluoromethyl-3'-carbon-substituted-4'-substituted diphenyl ethers” (Rohm and Haas Company, priority 1981, dated 1983).

How the values were obtained:
[1] = Postemergence herbicidal activity (% control) against dicot weeds; conditions: post-emergence, 336 h; for activity at 2241.7 g/ha: read-out: Herbicidal activity (% control), postemergence, dicots, 2 lb./A., average, about two weeks after application; for activity at 4483.4 g/ha: read-out: Herbicidal activity (% control), postemergence, dicots, 4 lb./A., average, about two weeks after application; for activity at 11208.5 g/ha: read-out: Herbicidal activity (% control), postemergence, dicots, 10 lb./A., average, about two weeks after application
[2] = Preemergence herbicidal activity (% control) against dicot weeds; conditions: pre-emergence, 336 h; for activity at 2241.7 g/ha: read-out: Herbicidal activity (% control), preemergence, dicots, 2 lb./A., average, about two weeks after application; for activity at 4483.4 g/ha: read-out: Herbicidal activity (% control), preemergence, dicots, 4 lb./A., average, about two weeks after application; for activity at 11208.5 g/ha: read-out: Herbicidal activity (% control), preemergence, dicots, 10 lb./A., average, about two weeks after application
[3] = Postemergence herbicidal activity (% control) against monocot weeds; assay type: in vivo; conditions: post-emergence, 336 h, average, about two weeks after application, read-out: Herbicidal activity (% control), postemergence, monocots; for activity at 2241.7 g/ha: 2 lb./A.; for activity at 4483.4 g/ha: 4 lb./A.; for activity at 11208.5 g/ha: 10 lb./A.
Source text: (§1) barnyardgrass (Echinochloa crusgalli) crabgrass (Digitaria spp.) nutsedge (Cyperus esculentus)
(§2) At 2 and 4 pounds per acre:
(§3) **Bermudagrass (Cynodon dactylon)
(§4) *downy brome (Bromus tectorum) foxtail (Setaria faberii)
(§5) Johnsongrass (Sorghum halepense) […]
(§6) quackgrass (Agropyron repens)
(§7) *ryegrass (Lolium perenne)
(§8) *wild oats (Avena factua)
(§9) *yellow millet (Panicum miliaceum)
(§10) The following test procedure is employed.

[4] = Preemergence herbicidal activity (% control) against monocot weeds; assay type: in vivo; conditions: pre-emergence, 336 h, average, about two weeks after application, read-out: Herbicidal activity (% control), preemergence, monocots; for activity at 2241.7 g/ha: 2 lb./A.; for activity at 4483.4 g/ha: 4 lb./A.; for activity at 11208.5 g/ha: 10 lb./A.
Source text: as §1, §2, §3, §4, §5, §6, §7, §8, §9, §10

## O=[N+]([O-])c1ccc(Oc2ccc(C(F)(F)F)cc2Cl)cc1OCC1CO1 (centres unmarked) [Example 38]
[1]
  activity at 2241.7 g/ha: 58%
  activity at 4483.4 g/ha: 98%
[2]
  activity at 2241.7 g/ha: 68%
  activity at 4483.4 g/ha: 86%
[3]
  activity at 2241.7 g/ha: 51%
  activity at 4483.4 g/ha: 43%
[4]
  activity at 2241.7 g/ha: 62%
  activity at 4483.4 g/ha: 47%

## CCCOc1cc(Oc2ccc(C(F)(F)F)cc2Cl)ccc1[N+](=O)[O-] [Example 5]
[1]
  activity at 4483.4 g/ha: 100%
[2]
  activity at 4483.4 g/ha: 78%
  activity at 11208.5 g/ha: 100%
[3]
  activity at 4483.4 g/ha: 99%
  activity at 11208.5 g/ha: 100%
[4]
  activity at 4483.4 g/ha: 84%
  activity at 11208.5 g/ha: 97%

## C#CCCOc1cc(Oc2ccc(C(F)(F)F)cc2Cl)ccc1[N+](=O)[O-] [Example 29]
[1]
  activity at 2241.7 g/ha: 100%
  activity at 4483.4 g/ha: 100%
[2]
  activity at 2241.7 g/ha: 84%
  activity at 4483.4 g/ha: 73%
[3]
  activity at 2241.7 g/ha: 97%
  activity at 4483.4 g/ha: 79%
[4]
  activity at 2241.7 g/ha: 66%
  activity at 4483.4 g/ha: 74%

## CS(=O)(=O)CCOc1cc(Oc2ccc(C(F)(F)F)cc2Cl)ccc1[N+](=O)[O-] [Example 42]
[1]
  activity at 2241.7 g/ha: 88%
  activity at 4483.4 g/ha: 98%
[2]
  activity at 2241.7 g/ha: 60%
  activity at 4483.4 g/ha: 80%
[3]
  activity at 2241.7 g/ha: 63%
  activity at 4483.4 g/ha: 38%
[4]
  activity at 2241.7 g/ha: 83%
  activity at 4483.4 g/ha: 62%

## O=[N+]([O-])c1ccc(Oc2ccc(C(F)(F)F)cc2Cl)cc1OCC(O)CO (stereo not drawn) [Example 39, 2-chloro-α,α,α-trifluoro-p-tolyl-3-(2,3-dihydroxypropoxy)-4-nitrophenyl ether]
[1]
  activity at 2241.7 g/ha: 100%
  activity at 4483.4 g/ha: 98%
[2]
  activity at 2241.7 g/ha: 80%
  activity at 4483.4 g/ha: 99%
[3]
  activity at 2241.7 g/ha: 61%
  activity at 4483.4 g/ha: 64%
[4]
  activity at 2241.7 g/ha: 77%
  activity at 4483.4 g/ha: 65%

## CCOc1cc(Oc2ccc(C(F)(F)F)cc2)ccc1[N+](=O)[O-] [Example 1]
[1]
  activity at 4483.4 g/ha: 58%
  activity at 11208.5 g/ha: 100%
[2]
  activity at 4483.4 g/ha: 45%
  activity at 11208.5 g/ha: 35%
[3]
  activity at 4483.4 g/ha: 57%
  activity at 11208.5 g/ha: 82%
[4]
  activity at 4483.4 g/ha: 76%
  activity at 11208.5 g/ha: 42%

## CCCOc1cc(Oc2ccc(C(F)(F)F)cc2C#N)ccc1[N+](=O)[O-] [Example 8]
[1]
  activity at 2241.7 g/ha: 66%
  activity at 4483.4 g/ha: 80%
  activity at 11208.5 g/ha: 100%
[2]
  activity at 2241.7 g/ha: 46%
  activity at 4483.4 g/ha: 57%
  activity at 11208.5 g/ha: 82%
[3]
  activity at 2241.7 g/ha: 35%
  activity at 4483.4 g/ha: 48%
  activity at 11208.5 g/ha: 85%
[4]
  activity at 2241.7 g/ha: 52%
  activity at 4483.4 g/ha: 61%
  activity at 11208.5 g/ha: 81%

## O=C(CCl)Nc1cc(Oc2ccc(C(F)(F)F)cc2Cl)ccc1[N+](=O)[O-] [Example 35, 2-chloro-α,α,α-trifluoro-p-tolyl-3-chloroacetamido-4-nitrophenyl ether]
[1]
  activity at 2241.7 g/ha: 80%
  activity at 4483.4 g/ha: 98%
[2]
  activity at 2241.7 g/ha: 72%
[3]
  activity at 2241.7 g/ha: 63%
  activity at 4483.4 g/ha: 45%
[4]
  activity at 2241.7 g/ha: 60%
  activity at 4483.4 g/ha: 40%

## CCOCCOc1cc(Oc2ccc(C(F)(F)F)cc2Cl)ccc1[N+](=O)[O-] [Example 16]
[1]
  activity at 2241.7 g/ha: 94%
  activity at 4483.4 g/ha: 96%
[2]
  activity at 2241.7 g/ha: 75%
  activity at 4483.4 g/ha: 94%
[3]
  activity at 2241.7 g/ha: 82%
  activity at 4483.4 g/ha: 77%
[4]
  activity at 2241.7 g/ha: 67%
  activity at 4483.4 g/ha: 86%

## CC(=O)C(C)Oc1cc(Oc2ccc(C(F)(F)F)cc2Cl)ccc1[N+](=O)[O-] (centres unmarked) [Example 32]
[1]
  activity at 4483.4 g/ha: 100%
[2]
  activity at 4483.4 g/ha: 100%
[3]
  activity at 2241.7 g/ha: 100%
  activity at 4483.4 g/ha: 86%
[4]
  activity at 2241.7 g/ha: 81%
  activity at 4483.4 g/ha: 86%
